Results from ChEMBL document CHEMBL5247588, “Design and characterization of PROTAC degraders specific to protein N-terminal methyltransferase 1” (Eur J Med Chem, 2022).
Calls of active or inactive are those of the source. The calls are words filed in the database; no cut-off is given here.

What was measured:
[1] = molecular target: T1, von Hippel-Lindau disease tumor suppressor/N-terminal Xaa-Pro-Lys N-methyltransferase 1 (Homo sapiens) (UniProt P40337+Q9BV86); assay: PROTAC activity at VHL/NTMT1 in human HT-29 cells assessed as reduction in NTMT1 protein level incubated for 24 hrs by Western blot analysis; type: cell-based
[2] = molecular target: T2, N-terminal Xaa-Pro-Lys N-methyltransferase 1 (Homo sapiens) (UniProt Q9BV86); assay: Potency index, ratio of DC541 IC50 to test compound IC50 for inhibition of NTMT1 (unknown origin) using SPKRIAKRRS(CONH2) peptide as substrate assessed as SAH production incubated for 10 mins in the presence of SAM by HPLC analysis
T2 sequence (whole entry): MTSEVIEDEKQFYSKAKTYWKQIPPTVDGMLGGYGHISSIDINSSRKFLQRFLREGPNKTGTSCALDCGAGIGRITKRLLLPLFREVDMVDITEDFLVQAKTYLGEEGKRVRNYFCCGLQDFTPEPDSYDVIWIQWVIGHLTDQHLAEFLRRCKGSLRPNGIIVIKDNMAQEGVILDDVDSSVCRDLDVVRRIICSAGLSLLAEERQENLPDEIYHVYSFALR

[3] = molecular target: T1, von Hippel-Lindau disease tumor suppressor/N-terminal Xaa-Pro-Lys N-methyltransferase 1 (Homo sapiens); assay: PROTAC activity at VHL/NTMT1 in human HCT-116 cells assessed as reduction in NTMT1 protein level incubated for 24 hrs by Western blot analysis; type: cell-based
[4] = molecular target: T3, N-terminal Xaa-Pro-Lys N-methyltransferase 1 (Homo sapiens, UniProt Q9BV86); assay: Inhibition of NTMT1 (unknown origin) using SPKRIAKRRS(CONH2) peptide as substrate assessed as SAH production incubated for 10 mins in the presence of SAM by HPLC analysis
T3 sequence (Q9BV86 whole entry): T2 sequence (whole entry)

[5] = molecular target: T1, von Hippel-Lindau disease tumor suppressor/N-terminal Xaa-Pro-Lys N-methyltransferase 1 (Homo sapiens); assay: PROTAC activity at VHL/NTMT1 in human HCT-116 cells assessed as reduction in NTMT1 protein level at 50 uM incubated for 24 hrs by Western blot analysis; type: cell-based
HCT-116 [6] = assay: Cytotoxicity against human HCT-116 cells assessed as reduction in cell viability at 1 to 64 uM incubated for 24 hrs by WST-8 assay; type: toxicity, cell-based; conditions: hct-116, 24 h, dose 1-64 µM
HCT-116 [7] = assay: Antiproliferative activity against human HCT-116 cells cultured in PG-S assessed as decrease in cell number at 64 uM measured after 3 days by AO/PI staining based cell counter analysis relative to control; type: functional; set-up: scale not given: the % may be the effect or the level left; conditions: time 3 day
HT-29 = assay: Cytotoxicity against human HT-29 cells assessed as reduction in cell viability at 1 to 64 uM measured after 24 hrs by WST-8 assay; type: toxicity, cell-based; conditions: ht-29, 24 h, dose 1-64 µM
[8] = Upregulation of CALR in human HCT-116 cells assessed as fold change at 25 uM incubated for 24 hrs by Western blot analysis relative to control; type: functional
[9] = molecular target: T1, von Hippel-Lindau disease tumor suppressor/N-terminal Xaa-Pro-Lys N-methyltransferase 1 (Homo sapiens); assay: PROTAC activity at VHL/NTMT1 in human HT-29 cells assessed as reduction in NTMT1 protein level at 50 uM incubated for 24 hrs by Western blot analysis; type: cell-based
HCT-116 [10] = assay: Antiproliferative activity against NTMT1 knockout human HCT-116 cells at 1 to 64 uM incubated for 72 hrs by fluorescence based microplate reader analysis; type: functional, cell-based; conditions: dose 1-64 µM
HCT-116 [11] = assay: Antiproliferative activity against human HCT-116 cells assessed as inhibition of cell proliferation at 1 to 64 uM incubated for 72 hrs by fluorescence based microplate reader analysis relative to control; type: functional; conditions: dose 1-64 µM
HCT-116 [12] = assay: Antiproliferative activity against human HCT-116 cells assessed as reduction in cell proliferation incubated for 72 hrs by fluorescence based microplate reader analysis; type: functional; conditions: dose 1-64 µM
HCT-116 [13] = assay: Antiproliferative activity against human HCT-116 cells assessed as reduction in tumor spheroid growth at 64 uM measured after 12 days by imaging analysis relative to control; type: functional; set-up: scale not given: the % may be the effect or the level left; conditions: time 12 day
[14] = molecular target: T1, von Hippel-Lindau disease tumor suppressor/N-terminal Xaa-Pro-Lys N-methyltransferase 1 (Homo sapiens); assay: PROTAC activity at VHL/NTMT1 in human HT-29 cells assessed as reduction in NTMT1 protein level at 50 uM measured upto 6 hrs by Western blot analysis; type: cell-based
[15] = molecular target: T1, von Hippel-Lindau disease tumor suppressor/N-terminal Xaa-Pro-Lys N-methyltransferase 1 (Homo sapiens); assay: PROTAC activity at VHL/NTMT1 in human HCT-116 cells assessed as reduction in NTMT1 protein level by measuring maximal efficacy at 0.1 to 50 uM incubated for 24 hrs by Western blot analysis relative to control; type: cell-based; conditions: dose 0.1-50 µM
[16] = molecular target: T1, von Hippel-Lindau disease tumor suppressor/N-terminal Xaa-Pro-Lys N-methyltransferase 1 (Homo sapiens); assay: PROTAC activity at VHL/NTMT1 in human HCT-116 cells assessed as reduction in NTMT1 protein level at 50 uM preincubated with MG132 for 2 hrs followed by compound addition and measured after 24 hrs by Western blot analysis; type: cell-based
[17] = molecular target: T4, von Hippel-Lindau disease tumor suppressor/N-terminal Xaa-Pro-Lys N-methyltransferase 2 (Homo sapiens) (UniProt P40337+Q5VVY1); assay: PROTAC activity at VHL/NTMT2 in human HCT-116 cells assessed as reduction in NTMT2 protein level at 5 to 50 uM incubated for 24 hrs by Western blot analysis; type: cell-based; conditions: dose 5-50 µM
HCT-116 [18] = assay: Induction of cell cycle arrest in human HCT-116 cells assessed as decrease in S phase cells at 64 uM incubated for 3 days by PI staining based flow cytometric analysis; type: functional; conditions: time 3.0 day
HCT-116 [19] = assay: Downregulation of NTMT1 in human HCT-116 cells at 25 uM incubated for 24 hrs by Western-blot analysis; type: functional, cell-based
[20] = molecular target: T1, von Hippel-Lindau disease tumor suppressor/N-terminal Xaa-Pro-Lys N-methyltransferase 1 (Homo sapiens); assay: PROTAC activity at VHL/NTMT1 in human HCT-116 cells assessed as reduction in NTMT1 protein level at 50 uM preincubated with compound for 24 hrs followed by compound washout and measured after 20 hrs by Western blot analysis; type: cell-based
HCT-116 [21] = assay: Induction of cell cycle arrest in human HCT-116 cells assessed as G0/G1 phase cells at 64 uM incubated for 3 days by PI staining based flow cytometric analysis (reference value: 65%); type: functional; conditions: time 3 day
HCT-116 [22] = assay: Antiproliferative activity against human HCT-116 cells cultured in PG-S assessed as viable cells upto 64 uM measured after 3 days by AO/PI staining based cell counter analysis relative to control; type: functional; conditions: time 3 day, up to 64 µM
HCT-116 [23] = assay: Induction of cell cycle arrest in human HCT-116 cells assessed as accumulation of cells at G0/G1 phase incubated for 3 days by PI staining based flow cytometric analysis; type: functional; conditions: time 3.0 day
HCT-116 [24] = assay: Upregulation of CALR in human HCT-116 cells at 25 uM incubated for 24 hrs by LC-MS based proteomic analysis; type: functional, cell-based
[25] = molecular target: T1, von Hippel-Lindau disease tumor suppressor/N-terminal Xaa-Pro-Lys N-methyltransferase 1 (Homo sapiens); assay: PROTAC activity at VHL/NTMT1 in human HT-29 cells assessed as reduction in NTMT1 protein level at 50 uM preincubated with compound for 24 hrs followed by compound washout and measured after 20 hrs by Western blot analysis; type: cell-based
[26] = molecular target: T1, von Hippel-Lindau disease tumor suppressor/N-terminal Xaa-Pro-Lys N-methyltransferase 1 (Homo sapiens); assay: PROTAC activity at VHL/NTMT1 in human HCT-116 cells assessed as reduction in NTMT1 protein level by measuring maximal efficacy at 50 uM measured at 3 hrs by Western blot analysis relative to control; type: cell-based
[27] = molecular target: T1, von Hippel-Lindau disease tumor suppressor/N-terminal Xaa-Pro-Lys N-methyltransferase 1 (Homo sapiens); assay: PROTAC activity at VHL/NTMT1 in human HT-29 cells assessed as reduction in NTMT1 protein level by measuring maximal efficacy at 50 uM measured after 24 hrs by Western blot analysis relative to control; type: cell-based
[28] = molecular target: T1, von Hippel-Lindau disease tumor suppressor/N-terminal Xaa-Pro-Lys N-methyltransferase 1 (Homo sapiens); assay: PROTAC activity at VHL/NTMT1 in human HCT-116 cells co-expressing eGFP fusion protein assessed as reduction in NTMT1 protein level by measuring reduction in eGFP fluorescence at 100 uM incubated for 24 hrs by fluorescence microscopic analysis; type: cell-based
HCT-116 [29] = assay: Downregulation of NTMT1 in human HCT-116 cells at 25 uM incubated for 24 hrs by LC-MS based proteomic analysis; type: functional, cell-based
[30] = molecular target: T1, von Hippel-Lindau disease tumor suppressor/N-terminal Xaa-Pro-Lys N-methyltransferase 1 (Homo sapiens); assay: PROTAC activity at VHL/NTMT1 in human HT-29 cells assessed as reduction in NTMT1 protein level by measuring maximal efficacy at 0.1 to 50 uM incubated for 24 hrs by Western blot analysis relative to control; type: cell-based; conditions: dose 0.1-50 µM
[31] = molecular target: T1, von Hippel-Lindau disease tumor suppressor/N-terminal Xaa-Pro-Lys N-methyltransferase 1 (Homo sapiens); assay: PROTAC activity at VHL/NTMT1 in human HCT-116 cells assessed as reduction in NTMT1 protein level at 50 uM preincubated with MLN4924 for 2 hrs followed by compound addition and measured after 24 hrs by Western blot analysis; type: cell-based
[32] = molecular target: T4, von Hippel-Lindau disease tumor suppressor/N-terminal Xaa-Pro-Lys N-methyltransferase 2 (Homo sapiens); assay: PROTAC activity at VHL/NTMT2 in human HT-29 cells assessed as reduction in NTMT2 protein level at 5 to 50 uM incubated for 24 hrs by Western blot analysis; type: cell-based; conditions: dose 5-50 µM
HCT-116 [33] = assay: Antiproliferative activity against human HCT-116 cells cultured in PG-S assessed as decrease in cell number measured after 3 days by AO/PI staining based cell counter analysis; type: functional; conditions: time 3.0 day

T1 sequence (P40337 whole entry, looked up, one chain of several): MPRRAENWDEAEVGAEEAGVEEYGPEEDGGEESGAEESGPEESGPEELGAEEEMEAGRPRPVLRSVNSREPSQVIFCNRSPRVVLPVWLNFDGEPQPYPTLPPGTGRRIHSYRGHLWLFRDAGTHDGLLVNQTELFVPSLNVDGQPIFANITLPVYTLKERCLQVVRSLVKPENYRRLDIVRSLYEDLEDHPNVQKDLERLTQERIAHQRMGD
T4 sequence (P40337 whole entry, looked up): as the sequence (P40337 whole entry, looked up, one chain of several) above
T4 sequence (Q5VVY1 whole entry, looked up): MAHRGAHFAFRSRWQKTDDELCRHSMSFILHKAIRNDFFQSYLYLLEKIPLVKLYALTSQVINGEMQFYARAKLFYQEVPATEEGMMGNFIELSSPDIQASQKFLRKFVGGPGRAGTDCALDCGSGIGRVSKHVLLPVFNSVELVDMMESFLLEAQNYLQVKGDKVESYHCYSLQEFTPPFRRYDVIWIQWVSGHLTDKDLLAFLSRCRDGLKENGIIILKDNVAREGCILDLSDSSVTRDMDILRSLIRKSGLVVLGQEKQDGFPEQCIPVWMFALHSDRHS

## Cc1ncsc1-c1ccc(CNC(=O)[C@@H]2C[C@@H](O)CN2C(=O)[C@H](C(C)C)N2Cc3ccccc3C2=O)c(OCCOCCNC(=O)c2ccccc2NC(=O)[C@H](CCCCN)NC(=O)[C@@H]2CCCN2C(=O)Cc2cccc3ccccc23)c1
[1]
  Activity: Dose-Dependent Effect
[2]
  Ratio IC50: 2
[3]
  Activity: Dose-Dependent Effect
[4]
  IC50: 2000 nM

## Cc1ncsc1-c1ccc(CNC(=O)[C@@H]2C[C@H](O)CN2C(=O)[C@H](C(C)C)N2Cc3ccccc3C2=O)c(OCCNC(=O)c2ccccc2NC(=O)[C@H](CCCCN)NC(=O)[C@@H]2CCCN2C(=O)Cc2cccc3ccccc23)c1
[5]
  Activity: inactive
HCT-116 [6]
  Activity: Non-Toxic
HCT-116 [7]
  Activity: 78%
HT-29
  Activity: Non-Toxic
[8]
  fold change (FC): 1.1
[2]
  Ratio IC50: 2
[9]
  Activity: inactive
[4]
  IC50: 2420 nM
HCT-116 [10]
  Activity: inactive
HCT-116 [11]
  inhibition (INH): 22%
HCT-116 [12]
  Activity: Active
HCT-116 [13]
  Activity: 32%

## NCCCC[C@H](NC(=O)[C@@H]1CCCN1C(=O)Cc1cccc2ccccc12)C(=O)Nc1ccccc1C(N)=O
[4]
  IC50: 4380 nM

## Cc1ncsc1-c1ccc(CNC(=O)[C@@H]2C[C@@H](O)CN2C(=O)[C@H](C(C)C)N2Cc3ccccc3C2=O)c(OCCNC(=O)c2ccccc2NC(=O)[C@H](CCCCN)NC(=O)[C@@H]2CCCN2C(=O)Cc2cccc3ccccc23)c1
[14]
  Activity: inactive
[15]
  Emax: > 90%
[5]
  Activity: Active
[16]
  Activity: inactive
HCT-116 [6]
  Activity: Non-Toxic
[1]
  Activity: Dose-Dependent Effect
HCT-116 [7]
  Activity: 68%
HT-29
  Activity: Non-Toxic
[8]
  fold change (FC): 1.5
[2]
  Ratio IC50: 2
[17]
  Activity: inactive
HCT-116 [18]
  Activity: Active
HCT-116 [19]
  Activity: Active
[20]
  Activity: inactive
HCT-116 [21]
  Activity: 71%
HCT-116 [22]
  Activity: >92%
HCT-116 [23]
  Activity: Dose-Dependent Effect
HCT-116 [24]
  Activity: Active
[25]
  Activity: inactive
[26]
  Emax: > 60%
[27]
  Emax: > 90%
[3]
  Activity: Dose-Dependent Effect
[28]
  Activity: Active
HCT-116 [29]
  Activity: Active
[30]
  Emax: > 90%
[31]
  Activity: inactive
[4]
  IC50: 1770 nM
[32]
  Activity: inactive
HCT-116 [33]
  Activity: Dose-Dependent Effect
HCT-116 [10]
  Activity: inactive
HCT-116 [11]
  inhibition (INH): 47%
HCT-116 [12]
  Activity: Active
HCT-116 [13]
  Activity: 62%

## Cc1ncsc1-c1ccc(CNC(=O)[C@@H]2C[C@@H](O)CN2C(=O)[C@H](C(C)C)N2Cc3ccccc3C2=O)c(OCCOCCOCCOCCNC(=O)c2ccccc2NC(=O)[C@H](CCCCN)NC(=O)[C@@H]2CCCN2C(=O)Cc2cccc3ccccc23)c1
[1]
  Activity: Dose-Dependent Effect
[2]
  Ratio IC50: 2
[3]
  Activity: Dose-Dependent Effect
[4]
  IC50: 2000 nM

## NCCCC[C@H](NC(=O)[C@@H]1CCCN1C(=O)Cc1cccc2ccccc12)C(=O)Nc1ccccc1C(=O)O
[4]
  IC50: 9180 nM
